Experimental data: patent US20160297761A1, “NOVEL INHIBITORS OF GLUTAMINASE” (RHIZEN PHARMACEUTICALS SA, priority 2014, published 2016)
Like-named read-outs stand apart in the source and are kept apart here.

Experiments:
[1] = target: T1, L-glutaminase present in mice brain homogenate (Glutaminase(Brain)) (Mus musculus, UniProt D3Z7P3); assay: Glutaminase enzyme activity using glutaminase enzyme from mice brain/kidney homogenate (Nessler's reagent, ammonia); type: biochemical; details: for inhibition at 0.1 µM: read-out: Glutaminase(Brain) activity % inhibition 0.1 μM; for inhibition at 1 µM: read-out: Glutaminase(Brain) activity % inhibition @1 μM
T1 sequence (D3Z7P3 55-674): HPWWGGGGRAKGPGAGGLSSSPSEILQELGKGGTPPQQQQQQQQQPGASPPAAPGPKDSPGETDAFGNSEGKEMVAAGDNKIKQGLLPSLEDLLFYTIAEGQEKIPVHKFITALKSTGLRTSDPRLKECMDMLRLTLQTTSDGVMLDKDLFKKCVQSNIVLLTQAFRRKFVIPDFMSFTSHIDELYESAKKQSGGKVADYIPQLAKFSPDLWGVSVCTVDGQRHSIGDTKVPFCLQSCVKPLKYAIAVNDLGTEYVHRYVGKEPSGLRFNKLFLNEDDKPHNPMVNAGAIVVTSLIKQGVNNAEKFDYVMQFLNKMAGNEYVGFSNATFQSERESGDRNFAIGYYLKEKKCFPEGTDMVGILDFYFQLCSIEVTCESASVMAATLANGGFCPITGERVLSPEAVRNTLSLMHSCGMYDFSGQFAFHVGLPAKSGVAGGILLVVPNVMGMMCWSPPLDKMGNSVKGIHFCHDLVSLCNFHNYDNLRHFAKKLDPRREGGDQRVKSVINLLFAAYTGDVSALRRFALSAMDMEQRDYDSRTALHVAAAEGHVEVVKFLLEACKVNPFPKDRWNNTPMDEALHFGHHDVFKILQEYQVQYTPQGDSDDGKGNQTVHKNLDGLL
Experimental: Assay 3: Determination of Glutaminase Enzyme Activity Using Glutaminase
Enzyme from Mice Brain/Kidney
Step 1: Preparation of Tissue Homogenates: Male Balb/c mice were administered 0.28 M ammonium chloride in drinking water for 7 days. The animals were sacrificed and brain/kidney organs collected on dry ice. […] The tissue was homogenized and supernatants were stored at −80° C. until the enzyme assay was performed.
Aim: Compounds were assessed for their ability to inhibit the enzymatic activity of L-glutaminase present in mice brain/kidney homogenate.
Protocol: The assay was performed using a colorimetric method using Nessler's Reagent by quantifying the amount of ammonia formed as a by product during the enzymatic conversion of L-glutamine to glutamate. In the routine assay, 16 μl of tissue homogenate is added to 33 μl of Tris-Hcl phosphate buffer (pH 8) along with 1 μl of DMSO/test compound containing the desired final concentration and vortexed briefly. 50 μl of 20 mM L-glutamine Tris buffer is added to start the reaction and incubated for 15 minutes at 37° C. The ammonia formed is detected by adding 20 μl of reaction mixture to cold water in a 96 well plate followed by 20 μl of Nessler's reagent. The colour developed is measured at 450 nm. Data Analysis: Activity of the test compound is reported as % inhibition and the data is analyzed using Graphpad Prism (Graphpad software; San Diego Calif.) for IC50 determination.

cancer cell lines = assay: In vitro cell proliferation assay in cancer cell lines (MTT dye reduction, 72 h); type: cell-based; details: cancer cell line not named, 10% FBS media
Experimental: Assay 4: In Vitro Cell Proliferation Assay in Cancer Cell Lines
Growth inhibition assays were carried out using 10% FBS supplemented media. Cells were seeded at a concentration of 5000-20,000 cells/well in a 96-well plate. Test compounds at a concentration range from 0.01 to 10000 nM were added after 24 hours. Growth was assessed using the 3-[4,5-dimethylthiazol-2-yl]-2,5-diphenyltetrazolium bromide (MIT) dye reduction test at 0 h (prior to the addition of the test compound) and 72 hours after the addition of test compound. Absorbance was read on a Fluostar Optima (BMG Labtech, Germany) at a wave length of 450 nm. Data were analysed using GraphPad Prism and percent inhibition due to the test compound compared to the control was calculated accordingly.

Row | Structure (SMILES) | melting point | inhibition at 0.1 µM ([1]; 0.1 μM, mice brain homogenate) | inhibition at 1 µM ([1]; 1 μM, mice brain homogenate) | GI50 (cancer cell lines) | inhibition at 0.1 µM [1] | inhibition at 1 µM [1]
1 | O=C(Cc1ccccc1)Nc1nnc(C2CCC(c3nnc(NC(=O)Cc4ccccc4)s3)CC2)s1 (stereo not shown) [Example-101, N,N′-(5, 5′-(cyclohexane-1,4-diyl)bis(1,3,4-thiadiazole-5,2-diyl))bis(2-phenylacetamide)] | 281 to 283 °C |  |  |  |  | 
2 | O=C(Cc1cccc(OC(F)(F)F)c1)Nc1ccc(CCCCc2nnc(NC(=O)Cc3ccccn3)s2)c(F)n1 [Example-29, N-(6-fluoro-5-(4-(5-(2-(pyridin-2-yl)acetamido)-1,3,4-thiadiazol-2-yl)butyl)pyridin-2-yl)-2-(3-(trifluoromethoxy)phenyl)acetamide] |  | 50 to 75% | 75 to 100% | 1000 to 5000 nM |  | 
3 | CS(=O)(=O)Nc1ccc(CC(=O)Nc2nnc(CCCCc3ccc(NC(=O)Cc4cccc(OC(F)(F)F)c4)nc3)s2)cc1 [Example-31, 2-(4-(Methylsulfonamido)phenyl)-N-(5-(4-(6-(2-(3-(trifluoromethoxy)phenyl)acetamido)pyridin-3-yl)butyl)-1,3,4-thiadiazol-2-yl)acetamide] |  | 50 to 75% | 75 to 100% | 5000 to 10000 nM |  | 
4 | CS(=O)(=O)Nc1cccc(CC(=O)Nc2nnc(CCCCc3ccc(NC(=O)Cc4cccc(OC(F)(F)F)c4)nc3)s2)c1 [Example-30, 2-(3-(Methylsulfonamido)phenyl)-N-(5-(4-(6-(2-(3-(trifluoromethoxy)phenyl)acetamido)pyridin-3-yl)butyl)-1,3,4-thiadiazol-2-yl)acetamide] |  | 50 to 75% | 75 to 100% | 1000 to 5000 nM |  | 
5 | Cc1ccc(F)c(C(=O)Nc2nnc(CCCCc3ccc(NC(=O)Cc4cccc(OC(F)(F)F)c4)nc3)s2)n1 [Example-37, 3-Fluoro-6-methyl-N-(5-(4-(6-(2-(3-(trifluoromethoxy)phenyl)acetamido)pyridin-3-yl)butyl)-1,3,4-thiadiazol-2-yl)picolinamide] | 130 to 133 °C | < 25% | < 25% |  |  | 
6 | O=C(Cc1cccnc1)Nc1ccc(CC2CC(c3nnc(NC(=O)Cc4cccc(OC(F)(F)F)c4)s3)C2)cn1 (stereo not shown) [Example-109, 2-(Pyridin-3-yl)-N-(5-((3-(5-(2-(3-(trifluoromethoxy)phenyl)acetamido)-1,3,4-thiadiazol-2-yl)cyclobutyl)methyl)pyridin-2-yl)acetamide] |  | 50 to 75% | 75 to 100% | < 100 nM |  | 
7 | O=C(Cc1cccnc1)Nc1ccc(CCCCc2nnc(NC(=O)Cc3cccc(Cl)c3)s2)cn1 [Example-18, 2-(3-Chlorophenyl)-N-(5-(4-(6-(2-(pyridin-3-yl)acetamido)pyridin-3-yl)butyl)-1,3,4-thiadiazol-2-yl)acetamide] |  | 50 to 75% | 75 to 100% | 100 to 400 nM |  | 
8 | O=C(Cc1cccc(OC(F)(F)F)c1)Nc1ccc(CC2CC(c3nnc(NC(=O)Cc4ccccn4)s3)C2)cn1 (stereo not shown) [Example-107, 2-(Pyridin-2-yl)-N-(5-(3-((6-(2-(3-(trifluoromethoxy)phenyl)acetamido)pyridin-3-yl)methyl)cyclobutyl)-1,3,4-thiadiazol-2-yl)acetamide] |  | 25 to 50% | 50 to 75% | 400 to 1000 nM |  | 
9 | O=C(Cc1cccc(OC(F)(F)F)c1)Nc1ccc(CCCCc2nnc(NC(=O)Cc3cccnc3)s2)c(F)n1 [Example-21, N-(6-Fluoro-5-(4-(5-(2-(pyridin-3-yl)acetamido)-1,3,4-thiadiazol-2-yl)butyl)pyridin-2-yl)-2-(3-(trifluoromethoxy)phenyl)acetamide] |  | 50 to 75% | 75 to 100% | < 100 nM |  | 
10 | O=C(Cc1cccnc1)Nc1ccc(CCCCc2nnc(NC(=O)Cc3cccc(F)c3)s2)cn1 [Example-20, 2-(3-Fluorophenyl)-N-(5-(4-(6-(2-(pyridin-3-yl)acetamido)pyridin-3-yl)butyl)-1,3,4-thiadiazol-2-yl)acetamide] |  | 75 to 100% | 75 to 100% | 400 to 1000 nM |  | 
11 | N#Cc1cccc(CC(=O)Nc2nnc(CCCCc3ccc(NC(=O)Cc4cccc(OC(F)(F)F)c4)nc3)s2)c1 [Example-17, 2-(3-Cyanophenyl)-N-(5-(4-(6-(2-(3-(trifluoromethoxy)phenyl)acetamido)pyridin-3-yl)butyl)-1,3,4-thiadiazol-2-yl)acetamide] |  | 25 to 50% | 75 to 100% | 100 to 400 nM |  | 
12 | O=C(Cc1cccnc1)Nc1ccc(CCCCc2nnc(NC(=O)Cc3cccc(OC(F)(F)F)c3)s2)cn1 [Example-11, 2-(Pyridin-3-yl)-N-(5-(4-(5-(2-(3-(trifluoromethoxy)phenyl)acetamido)-1,3,4-thiadiazol-2-yl)butyl)pyridin-2-yl)acetamide] |  | 75 to 100% | 75 to 100% | < 100 nM |  | 
13 | O=C(Cc1cccc(OC(F)(F)F)c1)Nc1ccc(CCCCc2nnc(NC(=O)Cc3cnccn3)s2)cn1 [Example-28, 2-(Pyrazin-2-yl)-N-(5-(4-(6-(2-(3-(trifluoromethoxy)phenyl)acetamido)pyridin-3-yl)butyl)-1,3,4-thiadiazol-2-yl)acetamide] |  | 75 to 100% | 50 to 75% | 1000 to 5000 nM |  | 
14 | O=C(Cc1cccc(OC(F)(F)F)c1)Nc1ccc(CC2CC(c3nnc(NC(=O)Cc4cccnc4)s3)C2)cn1 (stereo not shown) [Example-108, 2-(Pyridin-3-yl)-N-(5-(3-((6-(2-(3-(trifluoromethoxy)phenyl)acetamido)pyridin-3-yl)methyl)cyclobutyl)-1,3,4-thiadiazol-2-yl)acetamide] |  | 75 to 100% | 75 to 100% | 100 to 400 nM |  | 
15 | O=C(Cc1ccccn1)Nc1ccc(CCCCc2nnc(NC(=O)Cc3cccnc3)s2)c(F)n1 [Example-38, N-(6-fluoro-5-(4-(5-(2-(pyridin-3-yl)acetamido)-1,3,4-thiadiazol-2-yl)butyl)pyridin-2-yl)-2-(pyridin-2-yl)acetamide] |  | 25 to 50% | 75 to 100% | < 100 nM |  | 
16 | O=C(Cc1cccc(OC(F)(F)F)c1)Nc1ccc(CCCCc2nnc(NC(=O)Cc3ccccn3)s2)cn1 [Example 3, 2-(Pyridin-2-yl)-N-(5-(4-(6-(2-(3-(trifluoromethoxy)phenyl)acetamido)pyridin-3-yl)butyl)-1,3,4-thiadiazol-2-yl)acetamide] |  |  |  | 400 to 1000 nM | 50 to 75% | 75 to 100%
17 | CCC(Cl)C(=O)Nc1nnc(CCCCc2ccc(NC(=O)Cc3cccc(OC(F)(F)F)c3)nc2)s1 (stereo not shown) [Example-24, 2-Chloro-N-(5-(4-(6-(2-(3-(trifluoromethoxy)phenyl)acetamido)pyridin-3-yl)butyl)-1,3,4-thiadiazol-2-yl)butanamide] |  | < 25% | < 25% | 400 to 1000 nM |  | 
18 | O=C(Cc1cccc(OC(F)(F)F)c1)Nc1ccc(CCCCc2nnc(NC(=O)Cc3cccc(OC(F)(F)F)c3)s2)cn1 [Example-16, 2-(3-(Trifluoromethoxy)phenyl)-N-(5-(4-(5-(2-(3-(trifluoromethoxy)phenyl)acetamido)-1,3,4-thiadiazol-2-yl)butyl)pyridin-2-yl)acetamide] |  | 25 to 50% | 50 to 75% | < 100 nM |  | 
19 | O=C(Cc1ccccn1)Nc1ccc(CCCCc2nnc(NC(=O)Cc3cccc(OC(F)(F)F)c3)s2)c(F)n1 [Example-32, N-(6-fluoro-5-(4-(5-(2-(3-(trifluoromethoxy)phenyl)acetamido)-1,3,4-thiadiazol-2-yl)butyl)pyridin-2-yl)-2-(pyridin-2-yl)acetamide] |  | < 25% | 75 to 100% | 400 to 1000 nM |  | 
